Like-named read-outs stand apart in the source and are kept apart here.
Target: T1, human cannabinoid CB2 receptor (Homo sapiens, UniProt P34972)
T1 construct: expressed in transfected cells; host or cells: Saccharomyces cerevisiae strain MMY23 (expresses a chimeric Gpa1/human Galpha-i3 G-protein alpha subunit)
Assay: Cannabinoid CB2 receptor agonist activity, yeast reporter assay
Assay type: cell-based
Details: for Emax: read-out: efficacy (Emax) at the cloned human cannabinoid CB2 receptor; for activity in the CB2 assay (in words): CB2 assay described herein
Text: Yeast (Saccharomyces cerevisiae) cells expressing the human cannabinoid CB2 receptor were generated by integration of an expression cassette into the ura3 chromosomal locus of yeast strain MMY23. This cassette consisted of DNA sequence encoding the human CB2 receptor flanked by the yeast GPD promoter to the 5′ end of CB2 and a yeast transcriptional terminator sequence to the 3′ end of CB2. MMY23 expresses a yeast/mammalian chimeric G-protein alpha subunit in which the C-terminal 5 amino acids of Gpa1 are replaced with the C-terminal 5 amino acids of human Gαi3 (as described in Brown et al. (2000), Yeast 16:11-22).
Agonists were prepared as 10 mM stocks in DMSO. […] Agonist solutions in DMSO (1% final assay volume) were transferred into black, clear bottom, microtitre plates from NUNC (96- or 384-well). […] Fluorescence was plotted against compound concentration and iteratively curve fitted using a four parameter fit to generate a concentration effect value.

[1] = yeast (Saccharomyces cerevisiae) cells expressing human CB2, read-out: EC50 at the cloned human cannabinoid CB2 receptor

T1 sequence (P34972 whole entry): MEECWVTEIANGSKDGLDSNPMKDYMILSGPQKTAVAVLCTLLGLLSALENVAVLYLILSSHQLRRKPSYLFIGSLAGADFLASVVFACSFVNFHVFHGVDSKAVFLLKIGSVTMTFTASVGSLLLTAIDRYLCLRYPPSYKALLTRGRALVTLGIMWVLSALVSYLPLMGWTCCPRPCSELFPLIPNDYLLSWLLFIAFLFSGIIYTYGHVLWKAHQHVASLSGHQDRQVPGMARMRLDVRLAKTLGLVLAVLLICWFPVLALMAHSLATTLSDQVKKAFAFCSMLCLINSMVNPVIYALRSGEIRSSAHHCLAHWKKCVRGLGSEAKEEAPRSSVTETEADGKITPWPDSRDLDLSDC

activity in the CB2 assay (in words) | EC50 [1] [nM] | Structure (SMILES) | EC50 [nM] | Emax [%]
– | – | N#Cc1ccc(Nc2ncc(C(=O)NCc3ccccc3)c(C(F)(F)F)n2)cc1 [Example 27, 2-(4-Cyano-phenylamino)-4-trifluoromethyl-pyrimidine-5-carboxylic acid benzylamide] | 20 to 1000 | > 50
– | – | CN(Cc1ccccc1)C(=O)c1cnc(Nc2ccc(Cl)cc2Cl)nc1C(F)(F)F [Example 54, 2-(2,4-Dichloro-phenylamino)-4-trifluoroniethyl-pyrimidine-5-carboxylic acid N-benzyl-N methyl-amide] | > 1000 | < 50
– | – | CC(C)(C)c1ccc(CNC(=O)c2cnc(Nc3cccc(Cl)c3)nc2C(F)(F)F)cc1 [Example 106, 2-(3-Chloro-phenylamino)-4-trifluoromethyl-pyrimidine-5-carboxylic acid 4-tert-butyl-benzylamide] | > 1000 | < 50
– | – | O=C(NCc1cc(F)cc(F)c1)c1cnc(Nc2cccc(Cl)c2)nc1C(F)(F)F [Example 61, 2-(3-Chloro-phenylamino)-4-trifluoromethyl-pyrimidine-5-carboxylic acid N-(3,5-difluoro-benzyl)amide] | > 1000 | < 50
– | – | O=C(NCc1ccncc1)c1cnc(Nc2cc(Cl)ccc2Cl)nc1C(F)(F)F [Example 19, 2-(2,5-Dichlorophenylamino)trifluoromethylpyrimidine-5-carboxylic acid (pyridin-4-ylmethyl)amide] | 20 to 1000 | > 50
– | – | O=C(NCc1ccc(F)cc1)c1cnc(Nc2cc(Cl)ccc2Cl)nc1C(F)(F)F [Example 101, 2-(2,5-Dichloro-phenylamino)-4-trifluoromethyl-pyrimidine-5-carboxylic acid 4-fluoro-benzylamide] | 20 to 1000 | > 50
– | – | N#Cc1ccc(CNC(=O)c2cnc(Nc3cccc(Cl)c3Cl)nc2C(F)(F)F)cc1 [Example 65, 2-(2,3-Dichloro-phenylamino)-4-trifluoromethyl-pyrimidine-5-carboxylic acid N-(4-cyano-benzyl)amide] | > 1000 | < 50
– | – | CN(Cc1ccccc1)C(=O)c1cnc(Nc2cccc(Br)c2)nc1C(F)(F)F [Example 14, 2-(3-Bromophenylamino)-4-trifluoromethylpyrimidine-5-carboxylic acid N-benzyl-N-methylamide] | 20 to 1000 | > 50
– | – | N#Cc1ccc(CNC(=O)c2cnc(Nc3ccc(Cl)cc3Cl)nc2C(F)(F)F)cc1 [Example 66, 2-(2,4-Dichloro-phenylamino)-4-trifluoromethyl-pyrimidine-5-carboxylic acid N-(4-cyano-benzyl)amide] | > 1000 | < 50
– | – | CN(Cc1ccccc1)C(=O)c1cnc(Nc2ccccc2Cl)nc1C(F)(F)F [Example 96, 2-(2-Chloro-phenylamino)-4-trifluoromethyl-pyrimidine-5-carboxylic acid benzyl-methyl-amide] | – | > 50
– | – | N#Cc1ccc(CNC(=O)c2cnc(Nc3ccc(Cl)c(Cl)c3)nc2C(F)(F)F)cc1 [Example 68, 2-(3,4-Dichloro-phenylamino)-4-trifluoromethyl-pyrimidine-5-carboxylic acid N-(4-cyano-benzyl)amide] | > 1000 | < 50
– | – | O=C(NCc1ccc(F)cc1Cl)c1cnc(Nc2cccc(Cl)c2)nc1C(F)(F)F [Example 72, 2-(3-Chloro-phenylamino)-4-trifluoromethyl-pyrimidine-5-carboxylic acid N-(2-chloro-4-fluoro-benzyl)amide] | > 1000 | < 50
– | – | CCN(Cc1ccccc1)C(=O)c1cnc(Nc2ccccc2Cl)nc1C(F)(F)F [Example 53, 2-(2-Chloro-phenylamino)-4-trifluoromethyl-pyrimidine-5-carboxylic acid N-benzyl-N-ethyl-amide] | > 1000 | < 50
– | – | O=C(NCc1ccc(F)c(C(F)(F)F)c1)c1cnc(Nc2cccc(Cl)c2)nc1C(F)(F)F [Example 75, 2-(3-Chloro-phenylamino)-4-trifluoromethyl-pyrimidine-5-carboxylic acid N-(4-fluoro-3-trifluoromethyl-benzyl)amide] | > 1000 | < 50
– | – | O=C(NCc1ccc(F)cc1)c1cnc(Nc2cccc(Cl)c2F)nc1C(F)(F)F [Example 83, 2-(3-Chloro-2-fluoro-phenylamino)-4-trifluoromethyl-pyrimidine-5-carboxylic acid 4-fluoro-benzylamide] | 20 to 1000 | > 50
– | – | COc1cccc(CNC(=O)c2cnc(Nc3cccc(Cl)c3)nc2C(F)(F)F)c1 [Example 50, 2-(3-Chloro-phenylamino)-4-trifluoromethyl-pyrimidine-5-carboxylic acid N-(3-methoxybenzyl)amide] | > 1000 | < 50
– | – | O=C(NCc1ccc(F)c(F)c1)c1cnc(Nc2cccc(Cl)c2)nc1C(F)(F)F [Example 81, 2-(3-Chloro-phenylamino)-4-trifluoromethyl-pyrimidine-5-carboxylic acid 3,4-difluoro-benzylamide] | 20 to 1000 | > 50

activity in the CB2 assay (in words) | EC50 [1] [nM] | Structure (SMILES) | EC50 [nM] | Emax [%]
– | – | O=C(NCc1ccc(F)cc1)c1cnc(Nc2cc(C(F)(F)F)cc(C(F)(F)F)c2)nc1C(F)(F)F [Example 114, 2-(3,5-Ditrifluoromethyl-phenylamino)-4-trifluoromethyl-pyrimidine-5-carboxylic acid 4-fluoro-benzylamide] | > 1000 | < 50
inactive | – | O=C(NCc1ccccc1Br)c1cnc(Nc2cccc(Cl)c2)nc1C(F)(F)F [2-(3-Chloro-phenylamino)-4-trifluoromethyl-pyrimidine-5-carboxylic acid 2-bromo-benzylamide] | – | –
– | – | O=C(NCc1ccncc1)c1cnc(Nc2cc(Cl)cc(Cl)c2)nc1C(F)(F)F [Example 22, 2-(3,5-Dichlorophenylamino)-4-trifluoromethylpyrimidine-5-carboxylic acid (pyridin-4-ylmethyl)amide] | 20 to 1000 | > 50
– | 20 to 1000 | O=C(NCc1ccc(F)cc1)c1cnc(Nc2cccc(Br)c2)nc1C(F)(F)F [Example 24] | – | –
– | – | CN(Cc1ccccc1)C(=O)c1cnc(Nc2ccc(Cl)cc2)nc1C(F)(F)F [Example 45, 2-(4-Chloro-phenylamino)-4-trifluoromethyl-pyrimidine-5-carboxylic acid N-benzyl-N-methyl-amide] | > 1000 | < 50
inactive | – | COc1ccccc1CNC(=O)c1cnc(Nc2cccc(Cl)c2)nc1C(F)(F)F [2-(3-Chloro-phenylamino)-4-trifluoromethyl-pyrimidine-5-carboxylic acid 2-methoxy-benzylamide] | – | –
– | – | O=C(NCc1ccc(F)cc1)c1cnc(Nc2ccc(OC(F)(F)F)c(Cl)c2)nc1C(F)(F)F [Example 111, 2-(3-Chloro-4-trifluoromethoxy-phenylamino)-4-trifluoromethyl-pyrimidine-5-carboxylic acid 4-fluoro-benzylamide] | > 1000 | < 50
– | – | O=C(NCc1ccncn1)c1cnc(Nc2cccc(F)c2)nc1C(F)(F)F [Example 76, 2-(3-Fluoro-phenylamino)-4-trifluoromethyl-pyrimidine-5-carboxylic acid N-(pyrimidin-4-ylmethyl)-amide] | > 1000 | < 50
– | – | O=C(NCc1ccc(F)cc1)c1cnc(Nc2ccc(Cl)cc2Cl)nc1C(F)(F)F [Example 100, 2-(2,4-Dichloro-phenylamino)-4-trifluoromethyl-pyrimidine-5-carboxylic acid 4-fluoro-benzylamide] | 20 to 1000 | > 50
– | – | O=C(NCc1ccccc1Cl)c1cnc(Nc2cccc(Cl)c2)nc1C(F)(F)F [Example 51, 2-(3-Chloro-phenylamino)-4-trifluoromethyl-pyrimidine-5-carboxylic acid N-(2-chlorobenzyl)amide] | > 1000 | < 50
– | – | O=C(NCc1ccncc1)c1cnc(Nc2cccc(Cl)c2)nc1C(F)(F)F [Example 2, 2-(3-Chlorophenylamino)-4-trifluoromethylpyrimidine-5-carboxylic acid (pyrdin-4-ylmethyl)amide] | 20 to 1000 | > 50
– | – | CN(Cc1ccccc1)C(=O)c1cnc(Nc2cccc(C#N)c2)nc1C(F)(F)F [Example 48, 2-(3-Cyano-phenylamino)-4-trifluoromethyl-pyrimidine-5-carboxylic acid N-benzyl-N-methyl-amide] | > 1000 | < 50
– | – | N#Cc1ccc(CNC(=O)c2cnc(Nc3cccc(Br)c3)nc2C(F)(F)F)cc1 [Example 64, 2-(3-Bromo-phenylamino)-4-trifluoromethyl-pyrimidine-5-carboxylic acid N-(4-cyano-benzyl)amide] | > 1000 | < 50
– | – | CN(Cc1ccccc1)C(=O)c1cnc(Nc2cccc(Cl)c2Cl)nc1C(F)(F)F [Example 7, 2-(2,3-Dichlorophenylamino)-4-trifluoromethylpyrimidine-5-carboxylic acid N-benzyl-N-methylamide] | 20 to 1000 | > 50
– | 20 to 1000 | O=C(NCc1ccc(F)cc1)c1cnc(Nc2cccc(Cl)c2)nc1C(F)(F)F [Example 5, 2-(3-Chlorophenylamino)-4-trifluoromethylpyrimidine-5-carboxylic acid 4 fluorobenzyl-amide] | – | –
– | – | CN(Cc1ccc(F)cc1)C(=O)c1cnc(Nc2cccc(Cl)c2)nc1C(F)(F)F [Example 110, 2-(3-Chloro-phenylamino)-4-trifluoromethyl-pyrimidine-5-carboxylic acid (4-fluoro-benzyl)-methyl-amide] | > 1000 | < 50
